Consider one compound from patent US20090186827A1, “Process of inhibiting cell death in injured cartilage” (The Scripps Research Institute, priority 2001, published 2009).

Each structure is given as a SMILES string. “Also recorded” adds a separate entry of the source. Where a SMILES comes first, the peptide text is derived from it. The star is where a group is joined. Cbz = O=C(OCc1ccccc1)*; CH2F = FC*

The subject of experiment [1] is femoral and tibial articular cartilage. Kind of experiment: Intraarticular injection of caspase inhibitor in rabbits with anterior cruciate ligament transection (ACLT). Type of experiment: in vivo, New Zealand White rabbits. Here is the method:
Intraarticular injection of caspase inhibitor in rabbits with ligament transection. A pilot study was performed to assess feasibility and efficacy of caspase inhibition in vivo. Eight New Zealand White rabbits were divided into anterior cruciate ligament transection (ACLT) and ACLT+caspase inhibitor (CI) groups. Both groups underwent bilateral ACLT. The ACLT+CI group was treated with intra-articular injections of 25 μg of z-VAD.fmk three times per week for six weeks while the control group received saline injections. Rabbits were euthanised at six weeks and femoral and tibial articular cartilage evaluated by India ink staining and histologic Mankin grading after Safranin-O stain.

In the next experiment the test system is human cartilage explants. The experiment can be described thus: Load-induced chondrocyte apoptosis (TUNEL) in human cartilage explants. Type of experiment: cell-based. The following applies: loaded explants (30% strain) cultured in 100 mM z-VAD.fmk after injury, 96 hours post-injury. An excerpt: Cartilage explants. Macroscopically normal tibial and femoral articular surfaces were selected from human cadaver donors between 18 and 45 years of age. Using sterile techniques, full thickness cartilage was separated from underlying subchondral bone with a scalpel. 5 mm diameter cylindrical explants, ranging from 2 to 2.8 mm in thickness, cored out using a dermal punch (Acuderm, Inc., Ft. Lauderdale, Fla.). Explants taken from adjacent sites were used as matched controls for each group in each experiment to minimize variation in cartilage response due to differences in thickness and location within the joint. […]
(§1) Loading apparatus and procedure. […] Stress and strain data were recorded during the test.
Caspase inhibition. […] Percentage apoptosis was measured at 96 hours post-injury in three groups (control, loaded, and loaded with z-VAD.fmk) with ten explants each in two separate experiments.
Apoptosis detection. […] This was detected by immunohistochemical staining with M30 (Cytodeath, Boehringer Mannheim, Eugene, Oreg.), a monoclonal antibody that recognizes the neo-epitope exposed in early apoptosis.
Chondrocyte apoptosis after mechanical injury to human cartilage. […] GAG release and percentage of cells undergoing apoptosis were measured at 96 hours after injury. […]

In experiment [2] the test system is bovine cartilage explants. Kind of experiment: Load-induced chondrocyte apoptosis (TUNEL) in bovine cartilage explants. It is filed as cell-based.
Text: Cartilage explants. Macroscopically normal weight bearing portions of freshly slaughtered skeletally mature bovine femoral condyles were selected from animals between 2 and 6 years of age (Animal Technologies, Austin, Tex.). Only joints without visible signs of degeneration or aging were selected. Using sterile techniques, full thickness cartilage was separated from underlying subchondral bone with a scalpel and 5 mm diameter cylindrical explants, ranging from 1 to 1.8 mm in height, cored out using a dermal punch (Acuderm, Inc., Ft. Lauderdale, Fla.). Explants taken from adjacent sites were used as matched controls for each group in each experiment to minimize variation in cartilage response due to differences in thickness and location within the joint. Each explant was weighed and allowed to stabilize at 37° C. and 5% CO2 for 48 hours in 1 ml of Dulbecco's modified Eagle's medium (DMEM) supplemented with 10% fetal bovine serum (FBS), L-glutamine, antibiotics and 50 μg/ml ascorbic acid.
as §1
Apoptosis detection. […] TUNEL positive cells emit a bright green fluorescence while TUNEL negative cells display an orange color due to propidium iodide counterstaining. […] Cells in all areas were counted and divided into TUNEL positive or TUNEL negative. […]

For experiment [3], the system named is bovine cartilage explants. Kind of experiment: Glycosaminoglycan (GAG) release assay, mechanically injured bovine cartilage explants. It is filed as cell-based. The note with it: loaded bovine explants treated with caspase inhibitor. Here is the method: Glycosaminoglycan release assay. To estimate GAG depletion and release, the concentration of sulfated glycosaminoglycans was measured using […] (DMMB) as a monitor of spectrophotometric changes which occur during the formation of the sulfated GAG dye complex (Farndale, et al. (1986) Biochim. Biophys. Acts. 883, 173-177, Goldberg, et al. (1993) Agents Actions 39 Spec No, C163-C165). For GAG content measurement, samples were digested in papain and collagenase and the concentration of sulfated GAG measured using DMMB. To generate a standard curve, chondroitin-6-sulfate (Sigma, St. Louis, Mo.) was used at concentrations between 1 and 200 μg/ml. GAG released in media was normalized to the pooled mean GAG content of Control (uninjured) cartilage explants and expressed as a percentage of total GAG content.
Inhibition of apoptosis. To determine whether apoptosis could be prevented by caspase inhibition, 12 explants were loaded at 23 MPa (High Load) and cultured for 48 hours. […] Percent apoptosis and GAG release in media was measured as described above.
Release of sulfated glycosaminoglycans (GAG) was analyzed as a measure of the extent of damage sustained by the explant. […] GAG depletion was assessed by dimethylene blue binding assays of the culture supernatants and this correlated with the reduced of safranin O staining of the cartilage sections.

As to `COC(=O)CC(NC(=O)C(C)NC(=O)C(NC(=O)OCc1ccccc1)C(C)C)C(=O)CF` (stereo not drawn) [z-VAD.fmk, benzyloxycarbonyl-Val-Ala-Asp (OMe) fluoromethylketone] (Cbz-Val-Ala-Asp(OMe)-CH2F; configuration not given here), the “reduction of the size of the cartilage lesions (surface area, India ink stained femoral condyles)” value in experiment [1] (25 μg intra-articular three times per week for six weeks, bilateral ACLT) is on record as roughly 80%. For the same compound, the “cartilage lesions under India ink examination (in words)” value in experiment [1] (ACLT+CI group, six weeks) was “lesions that were smaller in area”. For the same compound, in experiment [1] (ACLT+CI group, six weeks, 4/8 knees), the “knees with Mankin grade 5 or higher” value is reported as 50%. Besides, the “reduction in apoptotic rates” value with human cartilage explants worked out at 50%. For the same compound, the “reduction in the apoptosis rate” value in experiment [2] (high and intermediate load groups) is greater than 50%. Also, the “chondrocyte apoptosis after mechanical injury (in words)” value in experiment [2] (loaded bovine explants, z-VAD.fmk 100 μM, 48 hours) was “reduced chondrocyte apoptosis”. Further, in experiment [3], the “GAG release / GAG depletion (in words)” value is given as “reduction in GAG release; also recorded: normalization of the GAG depletion”.
